Series [1] deals with NOD2 mediated NF-κB activation. The series can be described thus: NF-κB activation assay (luciferase reporter) in HEK293 cells. In kind it is cell-based, human. Particulars: HEK293 transfected with NOD2, 1 μg MDP-LD stimulation; relative to HEK293 transfected only with NOD2 or with pSUPER control vector. The procedure:
(§1) FIGS. 19A and 19B are graphs showing that GRIM-19 acts downstream of NOD2 and is required from NF-κB activation. […] NF-κB activity was determined in the absence or presence of 1 μg of MDP-LD. grim-19 mRNA level was measured by RT-PCR using specific primers. […] After a two hour period of infection with S. typhimurium at MOI=10, invasive bacteria were quantified as described above. * p<0.05
HEK293 cells were transfected overnight with 1 ng of NOD2, 10 ng of grim-19 siRNA plus 1 ng of pIV luciferase reporter plasmid and renilla plasmid. At the same time, 1 μg of MDP-LD (Sigma) was added. After twenty-four hours, luciferase activity was measured using the Dual-Luciferase Reporter Assay System (Promega, Madison, Wis.) according to the manufacturer's instructions and normalized relative to renilla activity.

Series [2] relates to S. typhimurium. The settings on record: for percentage of intracellular bacteria: transfected Caco-2 cells, two hour infection at MOI=10, one hour gentamicin, relative to untransfected Caco-2 cells = 100%, mean ±SEM.
For series [3], the system named is grim-19 mRNA in Caco-2 cells. Put plainly: Real time RT-PCR of grim-19 mRNA in Caco-2 cells. The settings on record: for grim-19 mRNA levels: Caco-2 cells harboring plasmid encoding siRNA. It is filed as cell-based, human. As to the method: Total RNA of IEC lines were extracted using Trizol (INVITROGEN) according to the manufacturer's instructions. For reverse transcription, 2 μg of total RNA was transcribed with RT PCR reagents provided in the SUPERSCRIPT FIRST-STRAND SYNTHESIS SYSTEM (INVITROGEN). Real time RT-PCR was performed in an ABI Prism 7000 Sequence Detector using SYBR Green JumpStart™ detection system. Briefly, 50 ng of the reversed transcribed cDNA were used for each PCR reaction with 200 nM of forward and reverse primers. Primers used for PCR had the following sequences: Forward 5-[…]-3, Reverse 5-[…]-3 (GRIM-19, 194 bp); Forward 5-[…]-3, Feverse 5-[…]-3 (glyceraldehyde-3-phosphate dehydrogenase [GAPDH], 440 bp). The following PCR program was used: 50° C. for 2 minutes, then 95° C. for 10 minutes followed by 40 cycles of 95° C. for 15 seconds, 60° C. for 15 seconds and 72° C. for 15 seconds. The threshold cycle (CT) values were obtained for the reactions reflecting quantity of the template in the sample. GRIM-19 Delta CT (ΔCT) was calculated by subtracting the GAPDH CT value from the GRIM-19 CT value and thus, represented the relative quantity of the target molecule after normalizing with the internal standard GAPDH. The GRIM-19 ΔCT values of Caco-2 cells infected with Salmonella, or transfected with pcDNA4/HisMAX-GRIM 19 were expressed as the percentage of GRIM-19 ΔCT values of control Caco-2 cells.

Series [4] has as its system grim-19 mRNA in HEK293 cells. Put plainly: RT-PCR of grim-19 mRNA in HEK293 cells. Particulars: HEK293 cells transfected with NOD2 and siRNA. It is filed as cell-based, human. The procedure:
as §1
Total RNA of IEC lines were extracted using Trizol (INVITROGEN) according to the manufacturer's instructions. For reverse transcription, 2 μg of total RNA was transcribed with RT PCR reagents provided in the SUPERSCRIPT FIRST-STRAND SYNTHESIS SYSTEM (INVITROGEN). Real time RT-PCR was performed in an ABI Prism 7000 Sequence Detector using SYBR Green JumpStart™ detection system. […] The threshold cycle (CT) values were obtained for the reactions reflecting quantity of the template in the sample. GRIM-19 Delta CT (ΔCT) was calculated by subtracting the GAPDH CT value from the GRIM-19 CT value and thus, represented the relative quantity of the target molecule after normalizing with the internal standard GAPDH. The GRIM-19 ΔCT values of Caco-2 cells infected with Salmonella, or transfected with pcDNA4/HisMAX-GRIM 19 were expressed as the percentage of GRIM-19 ΔCT values of control Caco-2 cells.

A further series deals with Caco-2 cells. The settings on record: Caco-2 cells transfected (overexpression), adenylate kinase release.
Series [5] has as its system S. typhimurium. Put plainly: Bacterial invasion assay in HEK293 cells. In kind it is cell-based, Salmonella enterica serovar Typhimurium. Particulars: MDP-LD stimulated, two hour infection at MOI=10, compared to untransfected HEK293. As to the method: as §1
Invasion assays were performed with Salmonella enterica serovar Typhimurium or Escherichia coli TOP10 (Invitrogen). Cell monolayers were seeded in 24-well tissue culture plate with 10^5 cells/well and incubated for 20 hours. Monolayers were then infected in 1 ml of cell culture medium without antibiotic and with heat-inactivated FCS at a multiplicity of infection (MOI) of 10 bacteria per epithelial cell. After a two hour incubation period at 37° C., the monolayers were washed two times with PBS. Fresh cell culture medium containing 100 μg/ml of gentamicin (Sigma) was then added for one hour to kill any extracellular bacteria. The epithelial cells were then lysed with 1% Triton X-100 in deionized water. Samples of cell lysates were diluted and plated onto Luria-Bertani agar plates to determine the number of colony forming units (cfu), which corresponds to the number of intracellular bacteria.

The subject of series [6] is NOD2 protein in SW480 cells. Put plainly: Western blot of NOD2 protein in SW480 cells. It is filed as cell-based, human. Particulars: TNFα stimulation, time-dependent. The source says: FIGS. 9A-9D depict NOD2 protein and its expression in SW480 cells. FIG. 9A is a schematic diagram showing the location of polypeptide sequences of NOD2 for immunization. FIGS. 9B, 9C, and 9D are photographs of Western blots. […] Untransfected COS7 cells were used as a negative control. […] Transiently transfected COS7 cells were immunoprecipitated with affinity purified (a.p.) anti-NOD2 antiserum (HM2559 a.p.), then immunoblotted with affinity purified biotinylated anti-NOD2 antiserum (b-HM2563 a.p.). […] As a positive control for NOD2 protein, lysates of COS7 cells transfected with pCMV FLAG-NOD2 was used.
Previous reported efforts had not been successful in detecting active NOD2 protein in vitro or in vivo. To detect the expression of active CARD15/NOD2 protein, anti-NOD2 sera (FIG. 9A) were generated. […] Increased production of TNFα has been noted in the mucosa of patients with Crohn's disease.

Series [7] relates to NOD2 mRNA expression in SW480 cells. The series can be described thus: Northern blot analysis of NOD2 mRNA expression in SW480 cells. It is filed as cell-based, human. As to the method: FIGS. 8A-8D are photographs of Northern blots showing the effect of cytokines on Nod2 mRNA expression in SW480 cells. FIG. 8A is a Northern blot analysis of Nod2 mRNA expression in SW480 cells treated with 10 ng/ml of IFNγ, TNFα, IL-1β, IL-4 and TGFβ for six hours. As a positive control for CARD15/NOD2, human PBMC was used. […] In each of FIGS. 8A-8C, expression of Nod2 is shown relative to GAPDH expression.
Regulation of NOD2 expression had not been previously characterized. In order to better understand how NOD2 expression might vary in the context of mucosal inflammation, the effects of cytokines on epithelial NOD2 expression were studied using the SW480 cell line.

In series [8] the test system is NOD1 mRNA expression in SW480 cells. The series can be described thus: Northern blot analysis of NOD1 mRNA expression in SW480 cells treated with cytokines. It is filed as cell-based, human. The settings on record: 10 ng/ml cytokine for six hours, Northern blot relative to GAPDH. The procedure:
FIGS. 3A, B, C, D, E, and F are photographs showing Northern blots. […] Cells were treated with IFNγ for six hours. […] Cells were treated with 100 ng/ml IFNγ.
Regulation of NOD1 expression had not been described previously. […] The effect of IFNγ on NOD1 mRNA expression is time and concentration dependent manner as assessed by Northern blot analysis (FIG. 3C-3E).

The test system of series [9] is NOD1 protein in SW480 cells. The series can be described thus: Immunoprecipitation / Western blot of NOD1 protein in SW480 cells. In kind it is cell-based, human. The settings on record: 100 ng/ml IFNγ, 6-48 hours, immunoprecipitation and immunoblot. The source says: FIGS. 4A and 4B are photographs of Western blots. […] Anti-HA monoclonal antibody and biotinylated anti-CARD4/NOD1 antiserum (HM3847) detected NOD1 protein in COS7 cells transiently transfected with pCl CARD4-HA. […] Lysates from COS7 cells transiently transfected with pCl CARD4-HA were used as positive control.
To investigate the expression of NOD1 protein, anti-NOD1 sera were generated. The specificity and the sensitivity were confirmed using lysates from COS7 cells transiently transfected with the HA tagged CARD4 expression plasmid, pCl CARD4-HA (FIG. 4A). Consistent with the regulation of mRNA expression, NOD1 protein was also augmented in SW480 cells by IFNγ stimulation (FIG. 4B).

Another series deals with human NOD1 promoter. Put plainly: NOD1 promoter luciferase reporter assay in SW480 cells. It is filed as cell-based. Particulars: SW480 cells transfected with pGL-2128, 100 ng/ml IFNγ for sixteen hours. The procedure: FIGS. 5A-5D are panels showing that IFNγ activated the human NOD1 promoter. FIG. 5A is a schematic diagram depicting the CARD4/NOD1 gene. Three IRF-1 binding motifs (IRF-1A, IRF-1B, and IRF-1C) are indicated as black boxes (▪). FIG. 5B is a schematic diagram depicting pGL Nod 1-luciferase deletion mutants. FIGS. 5C and 5D are graphs showing luciferase activity in SW480 cells were transiently transfected with 500 ng/well of the indicated expression plasmid. Ten hours after transfection, cells were cultured for a further sixteen hours with 100 ng/ml of IFNγ and then luciferase activity was measured. Black bars indicate the presence of IFNγ. White bars indicate the control conditions.
To identify the transcriptional regulation of NOD1, a series of luciferase reporter vectors was constructed, containing up to 2,128 base pairs corresponding to the DNA sequence upstream of base 1 and extending 21 base pairs into the first exon of NOD1 (FIGS. 5A and 5B). Luciferase activity in SW480 cells transfected with a vector containing the entire 2,128 base pairs upstream DNA (pGL-2128) was 125±16 fold higher than that obtained with the empty pGL3 basic vector.

Consider “grim-19 control siRNA: grim-19 control siRNA (sequence 2, atcgaggacttcgaggctc), which did not affect grim-19 mRNA (guide ATCGAGGACTTCGAGGCTC; chemistry not given here) [reference compound]”, for which the NF-κB activation result in series [1] is recorded as “no significant effect”. Also, the “percentage of intracellular bacteria” value with S. typhimurium [2] is listed as “not observed”. Besides, the “grim-19 mRNA levels” value in series [3] was “did not affect”. In [4], the “grim-19 mRNA level” value is reported as “did not knockdown”.
Take “NOD2: NOD2 protein expressed from Flag-tagged mammalian expression vector pCMVFlag-NOD2”: the cell death entry with Caco-2 cells was “did not induce cell death”. For the same molecule, the “invasive ability of S. typhimurium” value with S. typhimurium [5] is “decreased”.
In the case of TNFα, the NOD2 protein result in series [6] is “upregulated”. Besides, in series [7] (SW480 cells, TNFα, concentration and time-dependent), the “NOD2 mRNA expression” value was “up-regulated”.
For the molecule `C[C@@H]1C[C@@H]([C@H](O)CC2CC(=O)NC(=O)C2)C(=O)[C@@H](C)C1` [Cycloheximide], in [7] (SW480 cells stimulated with 10 ng/ml TNFα), the “second peak of NOD2 mRNA expression (at twenty-four hours)” value is recorded as “inhibited”.
With IFN-α, in the series on S. typhimurium [2] (Caco-2 cells stimulated with RA, IFN-α or both, two hour incubation), the “percentage of intracellular bacteria / invasive ability of S. typhimurium” value was “remained the same”. In addition, the “grim-19 mRNA expression” value in series [3] (Caco-2 cells stimulated with RA, IFN-α or both, real time RT-PCR) is reported as “did not show increased GRIM-19 expression”.
Consider TGFβ, for which the “NOD1 mRNA expression” value in series [8] is given as “did not affect”.
Turning to “grim-19 siRNA-1: siRNA expressed from pSUPER vector, 19-residue sequence 1-gtgtgggatactgcgagta specific to human grim-19 cDNA (guide GTGTGGGATACTGCGAGTA; expressed from pSUPER vector)”, the NF-κB activation in [1] was 50%. In the series with S. typhimurium [2] (Caco-2 cells stimulated with RA and IFN-α, compared with non-stimulated cells), the “invasive ability of S. typhimurium in stimulated Caco-2 cells” value is reported as “restored”. In addition, the “percentage of intracellular bacteria” value in the series with S. typhimurium [2] is listed as 162.0%±43.8%. Also, the “grim-19 mRNA levels” value in series [3] was “significantly decreased”. In [4], the “grim-19 mRNA level” value was “significantly decreased”. In addition, the “invasive ability of S. typhimurium” value in the series with S. typhimurium [5] is recorded as “reversed”.
“IL-β: cytokine as printed in b202; figure legend b47 names IL-1β”: the “NOD1 mRNA expression” value in [8] was “did not affect”.

B1: TNFβ: cytokine as printed in b202; figure legend b47 names TNFα (protein, UniProt P01374 35-205, looked up)
Lymphotoxin-alpha: LPGVGLTPSAAQTARQHPKMHLAHSTLKPAAHLIGDPSKQNSLLWRANTDRAFLQDGFSLSNNSLLVPTSGIYFVYSQVVFSGKAYSPKATSSPLYLAHEVQLFSSQYPFHVPLLSSQKMVYPGLQEPWLHSMYHGAAFQLTQGDQLSTHTDGIPHLVLSPSTVFFGAFAL
B1: in [8], the “NOD1 mRNA expression” value was “did not affect”.

B2: IFNγ: cytokine interferon gamma added to SW480 cells (protein, UniProt P01579 24-161, looked up)
Interferon gamma: QDPYVKEAENLKKYFNAGHSDVADNGTLFLGILKNWKEESDRKIMQSQIVSFYFKLFKNFKDDQSIQKSVETIKEDMNVKFFNSNKKKRDDFEKLTNYSVTDLNVQRKAIHELIQVMAELSPAAKTGKRKRSQMLFRG
For the molecule B2, the NOD1 protein entry in [9] is “augmented”. The “increase of luciferase activity” value in the series on human NOD1 promoter worked out at 80%. Moreover, the “NOD1 mRNA expression” value in series [8] is recorded as “augmented”.

B3: IL-4: cytokine added to SW480 cells (protein, UniProt P05112 25-153, looked up)
Interleukin-4: HKCDITLQEIIKTLNSLTEQKTLCTELTVTDIFAASKNTTEKETFCRAATVLRQFYSHHEKDTRCLGATAQQFHRHKQLIRFLKRLDRNLWGLAGLNSCPVKEANQSTLENFLERLKTIMREKYSKCSS
As to B3, the “NOD1 mRNA expression” value in [8] is given as “did not affect”.

These data come from US20080194456A1, “Compositions And Methods Related To An Intestinal Inflammation And Uses Therefor” (The General Hospital Corporation, priority 2004, published 2008).
